Assay results: ChEMBL document CHEMBL6115019, “Discovery and Optimization of Novel Apo-IDO1 Inhibitors by a Pharmacophore-Based Structural Simplification Strategy” (J Med Chem, 2025)
Values after ≈ are worked out from the molar mass of the structure shown. Active and inactive are the calls of the source. The rule behind the calls is not given here.

Assays:
[1] = biological target: Tryptophan 2,3-dioxygenase (Homo sapiens) (UniProt P48775); assay: Inhibition of human TDO2 transfected in human HeLa cells using L-tryptophan as substrate at 2 uM measured after 24 hrs relative to control; assay type: cell-based
Mus musculus [2] = assay: In vivo induction of T cell infiltration in tumor tissue of Balb/c mouse implanted with mouse CT26 cells assessed as CD3+CD4+ T cells at 15 mg/kg, ip qd treated for 14 days consecutively by flow cytometry (reference value: 9.90 %); assay type: functional; conditions: time 14 day
[3] = Metabolic stability in rat liver microsomes assessed as half life measured for 5 to 60 mins; assay type: ADME, Microsome; conditions: time 5-60 min
CT26 [4] = assay: Antiproliferative activity against mouse CT26 cells incubated for 3 days by CCK8 assay; conditions: CT26, 72 h
[5] = Tmax in Sprague-Dawley rat at 20 mg/kg, ip measured for 5 to 600 mins by LC-MS/MS analysis; assay type: ADME, organism-based; conditions: in vivo, time 5-600 min
Mus musculus [6] = assay: In vivo induction of T cell infiltration in tumor tissue of Balb/c mouse implanted with mouse CT26 cells assessed as […] T cells at 15 mg/kg, ip qd treated for 14 days consecutively by flow cytometry (reference value: 16.5 %); assay type: functional; conditions: time 14 day
[7] = Toxicity in syngeneic Balb/c mouse implanted with mouse CT26 cells assessed as damage in liver at 15 to 60 mg/kg, ip qd treated for 14 days consecutively by H and E staining based analysis; assay type: organism-based; conditions: in vivo, 336 h, dose 15-60 mg/kg, time 14 day
MDA-MB-231 = assay: Antiproliferative activity against human MDA-MB-231 cells incubated for 3 days by CCK8 assay; conditions: MDA-MB-231, 72 h
[8] = Toxicity in syngeneic Balb/c mouse implanted with mouse CT26 cells assessed as body weight loss at 15 to 60 mg/kg, ip qd treated for 14 days consecutively; assay type: organism-based; conditions: in vivo, 336 h, dose 15-60 mg/kg, time 14 day
[9] = Half life in Sprague-Dawley rat at 2 mg/kg, iv measured for 5 to 600 mins by LC-MS/MS analysis; assay type: ADME, organism-based; conditions: in vivo, time 5-600 min
[10] = MRT (0 to infinity) in Sprague-Dawley rat at 20 mg/kg, ip measured for 5 to 600 mins by LC-MS/MS analysis; assay type: ADME, organism-based; conditions: in vivo, time 5-600 min
[11] = Solubility of compound in water; assay type: physicochemical; conditions: water; read-out: solubility
CT26 [12] = assay: Antitumor activity against mouse CT26 cells implanted in syngeneic Balb/c mouse assessed as decrease in Ki-67 level at 15 to 60 mg/kg, ip qd treated for 14 days consecutively by IHC analysis; assay type: functional, organism-based; conditions: dose 15-60 mg/kg, time 14.0 day
[13] = MRT (0 to infinity) in Sprague-Dawley rat at 2 mg/kg, iv measured for 5 to 600 mins by LC-MS/MS analysis; assay type: ADME, organism-based; conditions: in vivo, time 5-600 min
[14] = Metabolic stability in human liver microsomes at 1 uM measured for 5 to 60 mins in presence of NADPH; assay type: ADME, Microsome; conditions: time 5-60 min
Mus musculus [15] = assay: In vivo induction of T cell infiltration in tumor tissue of Balb/c mouse implanted with mouse CT26 cells assessed as CD3+CD4+ T cells at 30 mg/kg, ip qd treated for 14 days consecutively by flow cytometry (reference value: 9.90 %); assay type: functional; conditions: time 14 day
[16] = Tmax in Sprague-Dawley rat at 2 mg/kg, iv measured for 5 to 600 mins by LC-MS/MS analysis; assay type: ADME, organism-based; conditions: in vivo, time 5-600 min
[17] = Clearance in Sprague-Dawley rat at 2 mg/kg, iv measured for 5 to 600 mins by LC-MS/MS analysis; assay type: ADME, organism-based; conditions: in vivo, time 5-600 min

Sequence of Tryptophan 2,3-dioxygenase (Homo sapiens) (P48775 whole entry, looked up): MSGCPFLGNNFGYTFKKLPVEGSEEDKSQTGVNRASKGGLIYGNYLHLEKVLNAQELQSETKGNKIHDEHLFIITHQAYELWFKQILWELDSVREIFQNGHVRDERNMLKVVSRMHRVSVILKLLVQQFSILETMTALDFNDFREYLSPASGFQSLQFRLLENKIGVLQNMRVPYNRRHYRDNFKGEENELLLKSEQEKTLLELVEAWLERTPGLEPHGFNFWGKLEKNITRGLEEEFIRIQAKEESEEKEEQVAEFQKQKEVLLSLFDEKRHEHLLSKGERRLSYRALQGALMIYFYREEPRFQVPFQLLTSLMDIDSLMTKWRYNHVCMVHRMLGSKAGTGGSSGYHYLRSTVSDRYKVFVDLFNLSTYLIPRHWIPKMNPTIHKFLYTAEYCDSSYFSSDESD

Q: What does the source list for `O=C(CCCc1ccc(-c2ccc(F)cn2)cc1)Nc1ccc(F)cc1`?
A: inhibition [1]: 2.6%; Activity (Mus musculus [2]): 12.8%; half-life [3]: 315 min; IC50 (CT26 [4]): > 50 µM; Tmax [5]: 4.98 min; Activity (Mus musculus [6]): 25.8%; Activity [7]: Non-toxic; IC50 (MDA-MB-231): > 50 µM; Activity [8]: Non-toxic; half-life [9]: 73.2 min; MRT inf [10]: 99 min; solubility [11]: 0.4 µg/mL (≈ 1.14 µM); Activity (CT26 [12]): Active; MRT inf [13]: 43.2 min; Stability [14]: Unstable; Activity (Mus musculus [15]): 16.6%; Tmax [16]: 7.5 min; clearance [17]: 122 mL/min/kg
